# Measurements taken from patent publication US4207316A, “Novel 17-substituted 11 β-hydroxy steroids of the pregnane series, their manufacture, preparation and use” (Schering Aktiengesellschaft, priority 1978, dated 1980).
# Where two headings read alike, the source gives them in different places.
# Columns and labels:
# [1] = tested on: paw edema (Mycobacterium butyricum suspension); assay: adjuvant edema test (systemic effectiveness); format: in vivo, SPF rats; settings: for ED50: Mycobacterium
# Experimental: The systemic effectiveness of the compounds can be determined with the aid of the adjuvant edema test as follows:
# SPF rats weighing 130-150 g. are injected in the right hind paw, for producing a center of inflammation, with 0.1 ml. of a 0.5% Mycobacterium butyricum suspension (obtainable from the U.S. company Difco). Prior to injection, the paw volume of the rats is measured. Twenty-four hours after injection, the paw volume is measured once again to determine the extent of the edema. Thereafter, varying amounts of the test compound--dissolved in a mixture of 29% benzyl benzoate and 71% castor oil--are administered orally or subcutaneously to the rats. After another 24 hours, the paw volume is again determined.
# The control animals are treated in the same way, except that they are injected with a benzyl benzoate-castor oil mixture free of test compound.
# From the paw volumes determined, the amount of test compound required for attaining a 50% reduction in volume of the experimentally produced paw edema is calculated in the usual way.
# The following tables indicate the thus-obtained test results, wherein in each case the compounds of this invention are compared with the conventional corticoids contained in commercially available preparations which are most analogous in structure.
# [2] = tested on: erythema of stripped skin (vasoconstriction); assay: vasoconstriction test (topical efficacy), difference in degree of efficacy vs diflucortolone 21-valerate (DFV); format: in vivo, healthy test persons (human); settings: 0.1 p.p.m. active agent, positive = more favorable than DFV
# Experimental: The topical efficacy can be determined as follows using the vasoconstriction test.
# The test was conducted on respectively eight healthy test persons of both sexes, who had not received any local corti costeroid treatment within the preceding two weeks. After the stratum corneum on the test persons' backs was removed down to the stratum lucidum (20-40 times application and tearing off of an adhesive film), respectively 0.1 g. of the preparations was applied to areas of a size of 4 cm^2 without protective dressing. To avoid the application of the identical preparation to identical skin areas, the application is done in a rotating fashion. The vasoconstriction is evaluated visually after 4 and 8 hours by the investigator in accordance with the following grades of effectiveness: 1=absolute fading; 2=minor residual erythema; 3=medium-grade erythema, reddening intensity in the central zone of stripped, untreated and undamaged skin; 4=erythema with minor fading; 5=no fading, or intensification of erythema.
# The individual evaluations were averaged.
# In each test series, diflucortolone 21-valerate (=6α,9α-difluoro-11β-hydroxy-16α-methyl-21-valeryloxy-1,4-pregnadiene-3,20-dione=DFV) is utilized as the reference compound.
# The difference Δ of the average degrees of efficacy of DFV and of the test compound determined in the individual series of investigations is calculated in each case. Positive deviations Δ show a more favorable evaluation: negative deviations show a more unfavorable evaluation of the test compound as compared to DFV.
# The tables set forth below list the observed test results obtained when treating the test persons with a preparation containing 0.1 p.p.m. of active agent.
# [3] = rats, subcutaneous, 24 h after administration
# [4] = sc, rats, subcutaneous, 24 h after administration, read-out: Adjuvant Edema Test ED50 s.c. (50% reduction in volume of paw edema)
# [5] = rats, oral, 24 h after administration, read-out: Adjuvant Edema Test ED50 p.o. (50% reduction in volume of paw edema)
# [6] = rats, oral, 24 h after administration
Molecule,"Adjuvant Edema Test ED50 s.c. (50% reduction in volume of paw edema) [1, 3]",Vasoconstriction Test Δ After 8 h. (difference of average degrees of efficacy of DFV and test compound) [2],"ED50 [1, 4] [mg/kg]",other results
"11β,21-Dihydroxy-17α-propoxymethoxy-4-pregnene-3,20-dione [No. 4]",3.2 mg./kg. Animal,+0.7,–,Vasoconstriction Test Δ After 4 h. (difference of average degrees of efficacy of DFV and test compound) [2]: +0.4
C[C@]12C=CC(=O)C=C1CC[C@@H]1[C@@H]2[C@@H](O)C[C@@]2(C)[C@H]1CC[C@]2(O)C(=O)CO [compound 8],–,–,–,"ED50 ([1]; in Rattus norvegicus, po, 24 h, read-out: Adjuvant Edema Test ED50 p.o. (50% reduction in volume of paw edema)): 8.6 mg/kg; ED50 ([1]; in Rattus norvegicus, sc, 24 h, read-out: Adjuvant Edema Test ED50 s.c. (50% reduction in volume of paw edema)): 2.6 mg/kg"
CCCOCO[C@]1(C(=O)CO)CC[C@H]2[C@@H]3CCC4=CC(=O)CC[C@]4(C)[C@H]3[C@@H](O)C[C@@]21C [compound 4],–,–,~10,–
"11β,21-Dihydroxy-17α-methoxymethoxy-1,4-pregnadiene-3,20-dione [No. 9]",about 3 mg./kg. Animal,+0.4,–,–
"11β,21-dihydroxy-17α-(1'-methoxyethoxy)-6α-methyl-1,4-pregnadiene-3,20-dione [Example 12]",about 3 mg./kg. Animal,–,–,–
CC(C)OCO[C@]1(C(=O)CO)CC[C@H]2[C@@H]3CCC4=CC(=O)CC[C@]4(C)[C@H]3[C@@H](O)C[C@@]21C [compound 5],–,–,> 30,"Adjuvant Edema Test, percentage in parentheses beside ED50 s.c. bound ([1]; rats, subcutaneous, at 30 mg./kg.): 42%"
"21-butyryloxy-11β-hydroxy-17α-methoxymethoxy-4-pregnene-3,20-dione [Example 20]",2.0 mg./kg. Animal,–,–,–
"21-acetoxy-11β-hydroxy-17α-methoxymethoxy-4-pregnene-3,20-dione [Example 18]",0.13 mg./kg. Animal,–,–,–
CCOCO[C@]1(C(=O)CO)CC[C@H]2[C@@H]3CCC4=CC(=O)CC[C@]4(C)[C@H]3[C@@H](O)C[C@@]21C [compound 3],–,–,14.5,–
"17α-Butoxymethoxy-11β,21-dihydroxy-4-pregnene-3,20-dione [No. 6]",about 1 mg./kg. Animal,+1.0,–,Vasoconstriction Test Δ After 4 h. (difference of average degrees of efficacy of DFV and test compound) [2]: +0.9
CCCCOCO[C@]1(C(=O)CO)CC[C@H]2[C@@H]3CCC4=CC(=O)CC[C@]4(C)[C@H]3[C@@H](O)C[C@@]21C [compound 6],–,–,20,–
CCCC(=O)O[C@]1(C(=O)CO)CC[C@H]2[C@@H]3CCC4=CC(=O)CC[C@]4(C)[C@H]3[C@@H](O)C[C@@]21C [compound 1],–,–,13,"ED50 [1, 5]: 54 mg/kg"
"21-Butyryloxy-11β-hydroxy-17α-methoxymethoxy-1,4-pregnadiene-3,20-dione [No. 12]",about 1 mg./kg. Animal,+0.2,–,Vasoconstriction Test Δ After 4 h. (difference of average degrees of efficacy of DFV and test compound) [2]: +0.5
"11β-hydroxy-17α-methoxymethoxy-21-trimethylacetoxy-4-pregnene-3,20-dione [Example 21]",3.0 mg./kg. Animal,–,–,–
"17α-Ethoxymethoxy-11β,21-dihydroxy-4-pregnene-3,20-dione [No. 3]",3.0 mg./kg. Animal,0.0,–,"Adjuvant Edema Test ED50 p.o. (50% reduction in volume of paw edema) [1, 6]: 22 mg./kg. Animal; Vasoconstriction Test Δ After 4 h. (difference of average degrees of efficacy of DFV and test compound) [2]: -0.3"
"21-Acetoxy-11β-hydroxy-17α-methoxymethoxy-1,4-pregnadiene-3,20-dione [No. 10]",3.0 mg./kg. Animal,+1.0,–,Vasoconstriction Test Δ After 4 h. (difference of average degrees of efficacy of DFV and test compound) [2]: +0.5
"6α-Fluoro-11β,21-dihydroxy-17α-methoxymethoxy-4-pregnene-3,20-dione [No. 25]",–,+1.3,–,"Adjuvant Edema Test ED50 p.o. (50% reduction in volume of paw edema) [1, 6]: about 8 mg./kg. Animal; Vasoconstriction Test Δ After 4 h. (difference of average degrees of efficacy of DFV and test compound) [2]: +1.0"
COCO[C@]1(C(=O)CO)CC[C@H]2[C@@H]3CCC4=CC(=O)C=C[C@]4(C)[C@H]3[C@@H](O)C[C@@]21C [compound 9],–,–,–,"ED50 [1, 5]: 9.8 mg/kg"
"11β,21-dihydroxy-17α-methoxymethoxy-16β-methyl-4-pregnene- 3,20-dione [Example 17]",2.1 mg./kg. Animal,–,–,–
"21-Acetoxy-9α-chloro-11β-hydroxy-17α-methoxymethoxy-4-pregnene-3,20-dione [No. 14]",–,–,–,"Adjuvant Edema Test ED50 p.o. (50% reduction in volume of paw edema) [1, 6]: 22 mg./kg. Animal; Vasoconstriction Test Δ After 4 h. (difference of average degrees of efficacy of DFV and test compound) ([2]; listed as 26): -0.8; Vasoconstriction Test Δ After 4 h. (difference of average degrees of efficacy of DFV and test compound) ([2]; listed as 27): +0.6; Vasoconstriction Test Δ After 8 h. (difference of average degrees of efficacy of DFV and test compound) ([2]; listed as 26): -0.9; Vasoconstriction Test Δ After 8 h. (difference of average degrees of efficacy of DFV and test compound) ([2]; listed as 27): +0.6"
"11β-hydroxy-17α-methoxymethoxy-21-propionyloxy-4-pregnene-3,20- dione [Example 19]",1.9 mg./kg. Animal,+0.5,–,Vasoconstriction Test Δ After 4 h. (difference of average degrees of efficacy of DFV and test compound) [2]: +0.5
C[C@]12CCC(=O)C=C1CC[C@@H]1[C@@H]2[C@@H](O)C[C@@]2(C)[C@H]1CC[C@]2(OC1CCCCO1)C(=O)CO (stereo partly drawn) [compound 7],–,–,12,–
COCO[C@]1(C(=O)COC(C)=O)CC[C@H]2[C@@H]3CCC4=CC(=O)C=C[C@]4(C)[C@H]3[C@@H](O)C[C@@]21C [compound 10],–,–,> 3,"Adjuvant Edema Test, percentage in parentheses beside ED50 s.c. bound ([1]; rats, subcutaneous, at 3 mg./kg.): 25%"
COCO[C@]1(C(=O)CO)CC[C@H]2[C@@H]3CCC4=CC(=O)CC[C@]4(C)[C@H]3[C@@H](O)C[C@@]21C [compound 2],–,–,13,"ED50 [1, 5]: 67 mg/kg"
"21-acetoxy-17α-methoxymethoxy-4-pregnene-3,11,20-trione [Example 24]",–,–,–,"Adjuvant Edema Test ED50 s.c. (50% reduction in volume of paw edema) ([1]; rats, subcutaneous, 24 h after administration, 1440 min): 3.5 mg./kg. Animal; Adjuvant Edema Test ED50 s.c. (50% reduction in volume of paw edema) ([1]; rats, subcutaneous, 24 h after administration, listed as 25, 1440 min): 4.0 mg./kg. Animal"
